Legend:
Assay in all cases: relative viability (nuclei count vs DMSO), 5 days (fraction); higher = more cells survive
[1] = compound: C1COCCN1C2=NC(=NC3=C2OC4=C3C=CC=N4)C5=CC(=CC=C5)NC(=O)C6=CN=C(C=C6)N + CC(=O)c1c(C)c2cnc(Nc3ccc(N4CCNCC4)cn3)nc2n(C2CCCC2)c1=O [Palbociclib] (partner 0.5 µM)
Summary of the method: (§1)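 Nuclei were stained with Hoechst during a one-step fixation (final 0.05% Triton X-100, 1% formaldehyde, 1 ug/ml Hoechst) carried out 5 days after dosing, then counted on 4× images. The cells, lung cancer lines in 1536-well plates, had been dosed by pin tool the day after seeding with one drug alone or a fixed anchor-drug dose plus five library-drug doses (not always all listed) in √10 steps. Relative viability is the nuclei count in treated wells divided by that in vehicle wells, and each value is the median of duplicate plates.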

SGI-1776 + Bortezomib = compound: CN1CCC(CNc2ccc3ncc(-c4cccc(OC(F)(F)F)c4)n3n2)CC1 [SGI-1776] + CC(C)C[C@H](NC(=O)[C@H](Cc1ccccc1)NC(=O)c1cnccn1)B(O)O [Bortezomib] (partner 0.002 µM)
Summary of the method: as §1

SGI-1776 + Foretinib = compound: CN1CCC(CNc2ccc3ncc(-c4cccc(OC(F)(F)F)c4)n3n2)CC1 [SGI-1776] + COc1cc2c(Oc3ccc(NC(=O)C4(C(=O)Nc5ccc(F)cc5)CC4)cc3F)ccnc2cc1OCCCN1CCOCC1 [Foretinib] (partner 0.25 µM)
Summary of the method: as §1

SGI-1776 + Lapatinib = compound: CN1CCC(CNc2ccc3ncc(-c4cccc(OC(F)(F)F)c4)n3n2)CC1 [SGI-1776] + CS(=O)(=O)CCNCc1ccc(-c2ccc3ncnc(Nc4ccc(OCc5cccc(F)c5)c(Cl)c4)c3c2)o1 [Lapatinib] (partner 2 µM)
Summary of the method: as §1

Row | Cell Line | relative viability ([1]; first compound 0.02 µM) | relative viability ([1]; first compound 0.06325 µM) | relative viability ([1]; first compound 0.2 µM) | relative viability ([1]; first compound 0.6325 µM) | relative viability ([1]; first compound 2 µM) | relative viability (SGI-1776 + Bortezomib; first compound 0.08 µM) | relative viability (SGI-1776 + Bortezomib; first compound 0.8 µM) | relative viability (SGI-1776 + Bortezomib; first compound 2.53 µM) | relative viability (SGI-1776 + Bortezomib; first compound 8 µM) | relative viability (SGI-1776 + Foretinib; first compound 0.08 µM) | relative viability (SGI-1776 + Foretinib; first compound 0.8 µM) | relative viability (SGI-1776 + Foretinib; first compound 2.53 µM) | relative viability (SGI-1776 + Foretinib; first compound 8 µM) | relative viability (SGI-1776 + Lapatinib; first compound 0.08 µM) | relative viability (SGI-1776 + Lapatinib; first compound 0.8 µM) | relative viability (SGI-1776 + Lapatinib; first compound 2.53 µM) | relative viability (SGI-1776 + Lapatinib; first compound 8 µM)
1 | HCC-827 | 0.392 | 0.537 | 0.491 | 0.538 | 0.34 | 1.11 | 0.984 | 1.05 | 1.04 | 1.04 | 1.13 | 1.09 | 0.647 | 0.168 | 0.201 | 0.16 | 0.194
2 | HOP-62 | 0.529 | 0.513 | 0.444 | 0.426 | 0.182 | 0.862 | 0.914 | 0.74 | 0.632 | 1.2 | 1.13 | 1.03 | 1.1 | 1.19 | 0.954 | 1.16 | 0.928
3 | IA-LM |  |  |  |  |  | 0.844 | 0.736 | 0.918 | 0.877 | 1.13 | 1.2 | 1.3 | 1.07 | 0.923 | 0.726 |  | 0.72
4 | LC-2-ad | 0.518 | 0.484 | 0.469 | 0.526 | 0.396 | 1.06 | 0.976 | 1.03 | 0.987 | 0.999 | 0.922 | 0.934 | 0.685 | 1.04 | 0.95 | 1.01 | 0.88
5 | LCLC-97TM1 | 0.226 | 0.26 | 0.236 | 0.323 | 0.162 | 0.775 | 0.557 | 0.549 | 0.567 | 0.932 | 0.952 | 0.945 | 0.829 | 1 | 0.79 | 1.14 | 0.95
6 | LCLC-103H | 0.498 | 0.453 | 0.546 | 0.467 | 0.403 | 1.06 | 1.05 | 1.01 | 0.859 | 0.88 | 0.705 | 0.748 | 0.637 |  |  |  | 
7 | LK-2 | 0.71 | 0.646 | 0.82 | 0.501 | 0.356 |  |  |  |  | 1.26 | 1.23 | 1.35 | 0.682 | 1.13 | 1.06 | 0.781 | 0.75
8 | LOU-NH91 | 0.541 | 0.551 | 0.565 | 0.49 | 0.535 | 0.482 | 0.565 | 0.489 | 0.458 | 1.06 | 0.893 | 0.926 | 0.762 | 0.818 | 0.824 | 0.75 | 0.588
9 | LU99A | 0.412 | 0.448 | 0.361 | 0.343 | 0.29 | 1.3 | 1.15 | 1.53 | 1.03 | 0.868 | 0.8 | 0.784 | 0.41 | 1.03 | 1.16 | 1.07 | 0.902
10 | NCI-H358 | 0.119 | 0.14 | 0.137 | 0.145 | 0.108 |  |  |  |  | 0.698 | 0.553 | 0.467 | 0.198 | 0.434 | 0.469 | 0.352 | 0.292
11 | NCI-H441 | 0.208 | 0.178 | 0.198 | 0.175 | 0.198 | 0.376 | 0.443 | 0.529 | 0.332 | 0.992 | 0.925 | 1.17 | 0.728 |  |  |  | 
12 | NCI-H522 | 0.798 | 0.984 | 0.884 | 0.743 | 0.838 |  |  |  |  |  |  |  |  |  |  |  | 
13 | NCI-H596 |  |  |  |  |  | 0.924 | 1.08 | 0.95 | 0.973 | 0.808 | 0.748 | 0.79 | 1.05 | 1.08 | 1.06 | 0.906 | 0.825
14 | NCI-H1299 |  |  |  |  |  | 1.02 | 1.04 | 1.02 | 1.04 | 1.08 | 1.11 | 1.07 | 1.01 | 1.02 | 0.991 | 0.99 | 0.95
15 | NCI-H1395 | 0.602 | 0.597 | 0.617 | 0.592 | 0.645 |  |  |  |  | 1.05 | 0.975 | 1.01 | 0.857 | 1.16 | 1.04 | 1.07 | 0.781
16 | NCI-H1563 |  |  |  |  |  | 0.934 | 0.849 | 0.847 | 0.692 | 0.949 | 0.952 | 0.92 | 0.888 | 0.869 | 0.939 | 1.02 | 0.825
17 | NCI-H1623 |  |  |  |  |  |  |  |  |  | 0.984 | 0.859 | 0.893 | 0.901 |  |  |  | 
18 | NCI-H1648 | 0.252 | 0.252 | 0.255 | 0.212 | 0.222 |  |  |  |  |  |  |  |  |  |  |  | 
19 | NCI-H1703 |  |  |  |  |  | 0.328 | 0.407 | 0.272 | 0.131 | 0.403 | 0.322 | 0.291 | 0.282 | 1.3 | 0.922 | 0.608 | 0.257
20 | NCI-H1792 | 0.661 | 0.74 | 0.605 | 0.463 | 0.384 | 0.94 | 0.941 | 0.977 | 1.01 |  |  |  |  | 0.908 | 0.988 | 0.867 | 0.756
21 | NCI-H1793 | 0.306 | 0.335 | 0.317 | 0.218 | 0.255 |  |  |  |  | 0.953 | 0.597 | 0.5 | 0.184 | 0.701 | 0.749 | 0.668 | 0.974
22 | NCI-H1944 | 0.354 | 0.381 | 0.336 | 0.304 | 0.253 |  |  |  |  | 0.869 | 0.83 | 0.926 | 0.713 | 0.81 | 0.727 | 0.915 | 0.601
23 | NCI-H2170 | 0.405 | 0.395 | 0.407 | 0.422 | 0.275 |  |  |  |  | 0.959 | 1 | 1.02 | 0.987 | 0.263 | 0.269 | 0.275 | 0.275
24 | NCI-H2342 | 0.525 | 0.522 | 0.505 | 0.512 | 0.515 |  |  |  |  | 1.22 | 1.07 | 1.04 | 1.04 |  |  |  | 
25 | SK-MES-1 | 0.314 | 0.329 | 0.294 | 0.276 | 0.312 |  |  |  |  | 1.06 | 0.762 | 0.857 | 0.648 | 0.494 | 0.447 | 0.449 | 0.404
26 | SW 900 | 0.52 | 0.555 | 0.525 | 0.548 | 0.345 |  |  |  |  | 1.05 | 1.12 | 0.9 | 0.817 |  |  |  | 

From the supplement of paper PMC10307832
